“Also recorded” adds a separate entry of the source. Read-outs that look alike come from different tables or passages of the source. Blank lines part the entries; values can stand above or below the compound they belong to.
Tests used:
[1] = molecular target: T1, recombinant SHIP2 phosphatase domain (Homo sapiens, UniProt O15357); assay: SHIP2 activity measurement, malachite green phosphate assay; type: biochemical; conditions: for Emax: read-out: max. inhibition of SHIP2 activity; for IC50: 100 μM PI(3,4,5)P3, four-parameter curve-fit
T1 construct: 100 ng of purified His-tagged recombinant SHIP2 phosphatase domain; His tag
T1 sequence (O15357 419-732 limits assumed): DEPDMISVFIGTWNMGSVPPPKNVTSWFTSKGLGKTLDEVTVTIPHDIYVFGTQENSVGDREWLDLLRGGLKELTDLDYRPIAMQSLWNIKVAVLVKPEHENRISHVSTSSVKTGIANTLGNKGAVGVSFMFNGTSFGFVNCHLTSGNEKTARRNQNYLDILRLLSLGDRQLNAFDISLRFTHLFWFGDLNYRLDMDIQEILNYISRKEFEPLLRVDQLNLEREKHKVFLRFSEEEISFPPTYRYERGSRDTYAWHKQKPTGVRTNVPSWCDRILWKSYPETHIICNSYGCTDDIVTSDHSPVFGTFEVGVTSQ
Procedure: For the activity measurements and other biological assays, sulfonanilides 1–12 were dissolved in DMSO and then further diluted into indicated concentrations in assay buffers or media. The capacities of 1–12 to inhibit SHIP2 activity and the IC50 values of 1–12 were measured using the recombinant SHIP2 phosphatase domain and malachite green phosphate assay at the High Throughput Biomedicine Unit (University of Helsinki, Finland). Different concentrations of 1–12 were dispensed to 384-well plates after which 100 ng of purified His-tagged recombinant SHIP2 phosphatase domain in reaction buffer (10 mM HEPES, pH 7.25, 6 mM MgCl2, 0.1% CHAPS, 250 mM sucrose and 0.25 mM EDTA) was added, and the plates were incubated for 15 min at room temperature. The reaction was started by adding 7.5 μL of PI(3,4,5)P3 (Echelon Biosciences, Salt Lake City, UT, USA) diluted in the reaction buffer (the final concentration of PI(3,4,5)P3 per well was 100 μM in the total volume of 15 μL), plates were incubated for 20 min at room temperature, and 15 μL of BIOMOL green reagent (Biomol, Plymouth Meeting, PA, USA) was added to wells. After 25 min incubation at room temperature, the absorbance was measured at 620 nm using a Pherastar FS plate reader (BMG Labtech, Offenburg, Germany) (n = 3 for each condition).
Data are presented as means ± STD or SEM of three or four independent experiments. Statistical analyses were performed using an unpaired, two-tailed Student’s t-test. P-values ≤0.05 were considered statistically significant. IC50-values were calculated using GraphPad Software, Inc., Prism version 6.05 (San Diego, CA, USA) using four-parameter curve-fit.

[2] = system: L6-GLUT4 myotubes; assay: On-Cell Western for HA-GLUT4 on the plasma membrane; type: cell-based, Rat; conditions: for increase of GLUT4 on the plasma membrane with insulin stimulation, compared to control cells treated with insulin / increase of GLUT4 on the plasma membrane with insulin stimulation, compared to control cells without insulin / increase of GLUT4 on the plasma membrane without insulin stimulation: 50 μM, 20 h; for increase of GLUT4 on the plasma membrane without insulin stimulation: no insulin, vs control without insulin
Procedure: (§1) Rat L6 myoblasts (American Type Culture Collection, Manassas, Virginia, USA) and L6 myoblasts stably overexpressing HA-tagged GLUT4 transporter (L6-GLUT4) were grown in high glucose DMEM (Sigma-Aldrich) supplemented with 10% FBS (Sigma-Aldrich, St. Louis, MO, USA), glutamine (Lonza; Walkersville, MD, USA), and penicillin–streptomycin (Sigma-Aldrich) at +37 °C in a humidified 5% CO2 atmosphere. For differentiation, the FBS concentration in the medium was lowered to 2%.
Differentiated L6-GLUT4 myotubes cultured on 96-well plate were treated with sulfonanilides 10 or 11 at 50 μM concentration for 20 h, of which the last 4 h in a serum-free medium. The quiescent cells were stimulated or not with 100 nM insulin for 15 min at 37 °C and fixed with 2% paraformaldehyde on ice for 5 min followed by 20 min at room temperature. The cells were incubated with a primary antibody against HA.11 epitope tag (#901513, BioLegend, San Diego, CA, USA) diluted 1/100 in 50% Odyssey Blocking buffer (LI-COR) in PBS at room temperature for 1 h, followed by incubation with a secondary antibody (IRDye 800CW Donkey anti-Mouse, LI-COR) and the nuclear marker DRAQ-5 (Thermo Fisher Scientific, Rockford, IL, USA) at room temperature for 1 h. The fluorescent signals were detected and quantified with an Odyssey infrared imager (LI-COR). DRAQ-5 was used for normalization. Four independent experiments were performed, resulting in total in 30–34 replicates for each condition.

[3] = system: Akt phosphorylation in L6 myotubes; assay: Akt activation (phosphorylation at Ser473) assay, quantitative Western blotting; type: cell-based, Rat; conditions: 15 min pretreatment then 10 nM insulin for 15 min
Procedure: as §1
To measure the Akt activation (phosphorylation), L6 myoblasts were differentiated into myotubes for 7 days, serum starved O/N, and treated with 0–50 μM sulfonanilides for 15 min after which 10 nM insulin (Actrapid, Novo Nordisk, Bagsvaerd, Denmark) was added for an additional 15 min. The cells were lysed in NP-40 buffer (1% nonidet P-40, 20 mM Tris–HCl pH 7.4, 150 mM NaCl) supplemented with phosphatase inhibitors (50 mM NaF and 1 mM Na3VO4) and protease inhibitor cocktail (cOmpleteProtease Inhibitor Coctail tablets, Roche Diagnostics GmbH, Mannheim, Germany) and then immunoblotted as in Tolvanen et al.[32] Briefly, samples were separated in 8% polyacrylamide gels and transferred onto PVDF membrane (Immobilon-FL PVDF transfer membrane, Merck Millipore Ltd., Tullagreen, Ireland). […]

[4] = system: L6-GLUT4 myotubes; assay: Radioactive 2-deoxyglucose glucose uptake assay; type: cell-based, Rat; conditions: 50 μM, 20 h; for increase of glucose uptake with insulin stimulation: 100 nM insulin 15 min, compared to control cells stimulated with insulin; for increase of glucose uptake without insulin: serum starvation, no insulin, vs control
Procedure: as §1
Glucose uptake was measured by a radioactive 2-deoxyglucose assay. L6 myotubes overexpressing GLUT4 glucose transporter were differentiated for 8–9 days. Cells were serum-starved for 20 h supplemented with 50 μM of sulfonanilides 10 or 11, 50 μM of metformin. Thereafter, cells were stimulated or not with 100 nM insulin for 15 min at 37 °C in DMEM (without D-glucose, L-glutamine, phenol red, and sodium pyruvate) (Gibco/Thermo Fisher Scientific). The cells were exposed to 1 μCi/mL 2-deoxy-D-[1, 2-^3H(N)]-glucose (PerkinElmer, Waltham MA, USA) for 5 min at 37 °C. Cells were lysed in 1% Triton X-100 in PBS, and the radioactivity of lysates was measured with a Wallac 1450 Microbeta Trilux liquid scintillator and a luminescense counter (PerkinElmer). Four independent experiments were performed, with 4 technical replicates for each condition.

[5] = system: L6 myotubes; assay: alamarBlue cell viability (cytotoxicity) assay; type: cell-based, Rat; conditions: for effect on metabolic activity of the cells (alamarBlue): 50 μM; for effect on cell viability: up to 200 μM
Procedure: as §1
For cytotoxicity analyses, L6 myoblasts were seeded on 96-well plates, differentiated for 7 days into myotubes, and incubated O/N with 0-300 μM sulfonanilides after which 10 μL of alamarBlue cell viability reagent (ThermoFisher Scientific, Waltham, MA, USA) was added according to the manufacturer instructions. The fluorescence was measured at 544/590 nm ± 20 nm using a Hidex Sense microplate reader (Hidex, Turku, Finland) at 0 and 60 min time points after the addition of the alamarBlue reagent, and the viability of the cells was calculated. The assay was repeated three times (n = 4 for each condition).

[6] = system: L6-GLUT4 myotubes; set-up: method as in PMID 30321069, PMID 1505458; conditions: cited from earlier work
[7] = purified His-tagged SHIP2 phosphatase domain
[8] = purified His-tagged SHIP2 phosphatase domain, 100 μM PI(3,4,5)P3, n = 3

Compound: CN(c1ccccc1)S(=O)(=O)c1ccccc1 [Compound 1, N-Methylbenzenesulfonanilide]
Emax [1]: 6 ± 2.8%

Compound: Cc1ccc(S(=O)(=O)N(C)c2ccccc2)cc1 [Compound 2, N-Methyl-p-toluenesulfonanilide]
Emax [1]: 10 ± 7.2%

Compound: CN(c1ccccc1)S(=O)(=O)c1ccc2ccccc2c1 [Compound 3, N-Methyl-2-naphthalenesulfonanilide]
IC50 [1, 7]: > 50 µM
Emax [1, 8]: 15 ± 1.6%

Compound: CN(c1ccccc1)S(=O)(=O)c1ccoc1 [Compound 5, N-Methyl-3-furansulfonanilide]
Emax [1, 8]: 3 ± 1.5%

Compound: CN(c1ccccc1)S(=O)(=O)c1cccs1 [Compound 6, N-Methyl-2-thiophenesulfonanilide]
IC50 [1, 7]: > 50 µM
Emax [1, 8]: 11 ± 2.2%

Compound: CN(C)C(=N)N=C(N)N [Metformin, metformin, reference compound]
increase of glucose uptake with insulin stimulation [4]: did not enhance glucose uptake; also recorded: did not increase glucose uptake
increase of glucose uptake without insulin [4]: did not enhance glucose uptake
concentration necessary to increase glucose uptake into myotubes [6]: 2 mM

Compound: insulin: insulin (Actrapid, Novo Nordisk) used to stimulate myotubes
increase of GLUT4 on the plasma membrane by insulin stimulation alone ([2]; control myotubes without sulfonanilide, 100 nM insulin 15 min, vs no insulin): 16%

Now from value to compound, other results behind:

IC50 [1, 7]: > 50 µM
Emax [1, 8]: 12 ± 4%
Compound: CN(c1ccccc1)S(=O)(=O)c1ccc(F)c(F)c1F [Compound 4, N-Methyl-2,3,4-trifluorobenzenesulfonanilide]

IC50 [1, 7]: > 50 µM
Emax [1, 8]: 17 ± 2.1%
Compound: Cc1ccc(S(=O)(=O)Nc2ccc(F)cc2Br)cc1 [Compound 7, 2′-Bromo-4′-fluoro-p-toluenesulfonanilide]

Emax [1, 8]: 10 ± 5.1%
Compound: O=S(=O)(Nc1ccc(F)cc1Br)c1ccc(F)c(F)c1F [Compound 8, 2′-Bromo-4′-fluoro-2,3,4-trifluorobenzenesulfonanilide]

Emax [1, 8]: 9 ± 3%
Compound: O=S(=O)(Nc1ccc(F)cc1Br)c1ccoc1 [Compound 9, 2′-Bromo-4′-fluoro-3-furansulfonanilide]

IC50 [1, 7]: 41.2 µM
Emax [1, 8]: 45 ± 17%
Compound: O=S(=O)(Nc1ccc(F)cc1Br)c1cccs1 [Compound 10, 2′-Bromo-4′-fluoro-2-thiophenesulfonanilide]
increase of GLUT4 on the plasma membrane with insulin stimulation, compared to control cells treated with insulin ([2]; 100 nM insulin 15 min): 10%
increase of GLUT4 on the plasma membrane with insulin stimulation, compared to control cells without insulin ([2]; 100 nM insulin 15 min): 26%
increase of GLUT4 on the plasma membrane without insulin stimulation [2]: 4%
Akt activation at 50 μM [3]: Neither sulfonanilide 10 nor 11 activated Akt; also recorded: did not enhance Akt activation
increase of glucose uptake with insulin stimulation [4]: 30%
increase of glucose uptake without insulin [4]: 18–19%
effect on metabolic activity of the cells (alamarBlue) [5]: slightly enhance the metabolic activity
effect on cell viability ([5]; O/N incubation): no or very little effect on cell viability; also recorded: not cytotoxic

IC50 [1, 7]: 7.07 µM
Emax [1, 8]: 45 ± 0.7%
Compound: CN(c1ccc(F)cc1F)S(=O)(=O)c1ccc(F)c(F)c1F [Compound 11, 2′,4′-Difluoro-N-methyl-2,3,4-trifluorobenzenesulfonanilide]
increase of GLUT4 on the plasma membrane with insulin stimulation, compared to control cells treated with insulin ([2]; 100 nM insulin 15 min): no increase
increase of GLUT4 on the plasma membrane with insulin stimulation, compared to control cells without insulin ([2]; 100 nM insulin 15 min): 15%
increase of GLUT4 on the plasma membrane without insulin stimulation [2]: 8%
Akt activation at 50 μM [3]: Neither sulfonanilide 10 nor 11 activated Akt; also recorded: did not enhance Akt activation
increase of glucose uptake with insulin stimulation [4]: 23%
increase of glucose uptake without insulin [4]: 18–19%
effect on metabolic activity of the cells (alamarBlue) [5]: slightly enhance the metabolic activity
decrease of cell viability ([5]; 300 μM, O/N incubation): 24%
effect on cell viability ([5]; O/N incubation): no or very little effect on cell viability

max. inhibition of SHIP2 activity [1, 8]: almost inactive
Emax [1, 8]: 5 ± 1.7%
Compound: CN(c1ccc(F)cc1F)S(=O)(=O)c1cccs1 [Compound 12, 2′,4′-Difluoro-N-methyl-2-thiophenesulfonanilide]
